The source made the active and inactive calls. No cut-off for these calls is given here.
How the values were obtained:
A549 [1] = assay: Cytotoxicity against human A549 cells assessed as reduction in cell viability after 72 hrs by MTT assay; type: functional, cell-based; conditions: A549, 72 h
A549 [2] = assay: Cytotoxicity against human A549 cells at 1.56 to 100 uM after 72 hrs by MTT assay; type: functional, cell-based
A549 [3] = assay: Induction of apoptosis in human A549 cells assessed as increase in PARP cleavage at 40 uM after 24 hrs by Western blot analysis; type: functional, cell-based
A549 [4] = assay: Induction of apoptosis in human A549 cells assessed as cell death at 80 uM after 24 hrs by Annexin V-FITC/propidium iodide staining based flow cytometry; type: functional
A549 [5] = assay: Induction of apoptosis in human A549 cells assessed as caspase-3 p17/19 active fragment generation at 40 uM after 24 hrs by Western blot analysis; type: functional, cell-based
A549 [6] = assay: Induction of apoptosis in human A549 cells assessed as necrotic cells up to 80 uM incubated for 24 hrs by Annexin V-FITC/propidium iodide staining based flow cytometry; type: functional, cell-based
A549 [7] = assay: Induction of apoptosis in human A549 cells assessed as increase in necrotic cells at 40 to 80 uM incubated for 24 hrs by Annexin V-FITC/propidium iodide staining based flow cytometry relative to control; type: functional
A549 [8] = assay: Induction of necrosis in human A549 cells at >20 uM after 24 hrs by Annexin V-FITC/propidium iodide staining based flow cytometry; type: functional, cell-based
[9] = Solubility of compound in water; type: physicochemical; conditions: buffer
A549 [10] = assay: Induction of apoptosis in human A549 cells assessed as cell death up to 40 uM after 24 hrs by Annexin V-FITC/propidium iodide staining based flow cytometry; type: functional
A549 [11] = assay: Induction of apoptosis in human A549 cells assessed as increase in PARP cleavage at 80 uM after 24 hrs by Western blot analysis; type: functional, cell-based
A549 [12] = assay: Induction of apoptosis in human A549 cells assessed as caspase-3 p17/19 active fragment generation at 80 uM after 24 hrs by Western blot analysis; type: functional, cell-based
A549 [13] = assay: Induction of apoptosis in human A549 cells assessed as increase in apoptotic cells up to 40 uM incubated for 24 hrs by Annexin V-FITC/propidium iodide staining based flow cytometry; type: functional, cell-based
A549 [14] = assay: Induction of apoptosis in human A549 cells assessed as increase in apoptotic cells at 80 uM incubated for 24 hrs by Annexin V-FITC/propidium iodide staining based flow cytometry; type: functional, cell-based
[15] = biological target: Tumour suppressor p53/oncoprotein Mdm2 (Homo sapiens) (UniProt P04637+Q00987); assay: Inhibition of MDM2/P53 interaction in human A549 cells assessed as increase in p53 level at 10 to 20 uM after 24 hrs by Western blot analysis; type: cell-based
Chain of Tumour suppressor p53/oncoprotein Mdm2 (Homo sapiens) (P04637 whole entry, looked up): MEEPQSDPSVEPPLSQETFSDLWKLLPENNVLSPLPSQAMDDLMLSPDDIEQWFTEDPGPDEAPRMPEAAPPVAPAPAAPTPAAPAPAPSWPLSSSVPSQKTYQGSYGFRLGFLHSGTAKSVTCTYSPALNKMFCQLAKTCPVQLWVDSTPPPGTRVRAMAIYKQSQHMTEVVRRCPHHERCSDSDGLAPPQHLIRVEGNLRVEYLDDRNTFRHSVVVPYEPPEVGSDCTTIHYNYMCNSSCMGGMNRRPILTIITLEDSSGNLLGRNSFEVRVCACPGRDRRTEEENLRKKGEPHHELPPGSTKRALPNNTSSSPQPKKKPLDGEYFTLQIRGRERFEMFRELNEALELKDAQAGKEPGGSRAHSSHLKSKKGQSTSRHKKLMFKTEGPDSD
Chain of Tumour suppressor p53/oncoprotein Mdm2 (Homo sapiens) (Q00987 whole entry, looked up): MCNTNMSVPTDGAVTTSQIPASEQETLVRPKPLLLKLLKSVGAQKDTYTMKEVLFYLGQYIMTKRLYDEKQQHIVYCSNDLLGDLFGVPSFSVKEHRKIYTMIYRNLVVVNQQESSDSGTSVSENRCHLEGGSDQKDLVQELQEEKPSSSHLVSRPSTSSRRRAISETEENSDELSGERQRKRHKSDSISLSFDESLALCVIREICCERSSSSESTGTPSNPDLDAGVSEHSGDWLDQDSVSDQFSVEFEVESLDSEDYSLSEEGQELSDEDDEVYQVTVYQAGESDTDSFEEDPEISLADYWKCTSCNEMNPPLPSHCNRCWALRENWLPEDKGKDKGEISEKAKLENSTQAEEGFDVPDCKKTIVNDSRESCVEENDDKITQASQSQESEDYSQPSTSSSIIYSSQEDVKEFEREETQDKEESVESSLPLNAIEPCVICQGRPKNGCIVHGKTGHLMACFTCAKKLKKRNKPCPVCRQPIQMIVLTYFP

Q: Which IC50 (A549 [1]) does the source give for `Oc1ccccc1C1=N[C@H](c2ccccc2O)[C@H](c2ccccc2O)N1` here?
A: 311 µM

Q: Which IC50 (A549 [1]) does the source give for `CCOc1ccc(C2=N[C@H](c3ccc(OCC)c(OC)c3)[C@H](c3ccc(OCC)c(OC)c3)N2)cc1OC` here?
A: 67.5 µM

Q: For `COc1ccccc1C1=N[C@H](c2ccccc2OC)[C@H](c2ccccc2OC)N1`, which IC50 (A549 [1]) is on record?
A: 27.4 µM

Q: Which IC50 (A549 [1]) does the source give for `COc1cccc(C2=N[C@H](c3cccc(OC)c3)[C@H](c3cccc(OC)c3)N2)c1` here?
A: 64.3 µM

Q: Which Activity (A549 [2]) does the source give for `COc1ccc(C2=N[C@H](c3ccc(O)cc3)[C@H](c3ccc(O)cc3)N2)cc1` here?
A: inactive

Q: For `Oc1ccc(C2=N[C@H](c3ccc(O)cc3)[C@H](c3ccc(O)cc3)N2)cc1`, which Activity (A549 [2]) is on record?
A: inactive

Q: For `Clc1ccc(C2=N[C@H](c3ccc(Cl)cc3Cl)[C@H](c3ccc(Cl)cc3Cl)N2)c(Cl)c1`, which IC50 (A549 [1]) is on record?
A: 164 µM

Q: For `Clc1ccc(C2=N[C@H](c3ccc(Cl)cc3)[C@H](c3ccc(Cl)cc3)N2)cc1`, which IC50 (A549 [1]) is on record?
A: 20.2 µM

Q: And the Activity (A549 [3])?
A: Active

Q: What about the Activity (A549 [4]) of the same compound?
A: Active

Q: What about the Activity (A549 [5]) of the same compound?
A: Active

Q: And the Activity (A549 [6])?
A: Active

Q: And the Activity (A549 [7])?
A: <=70%

Q: And the Activity (A549 [8])?
A: Active

Q: Which Activity (A549 [2]) does the source give for `COc1cc(C2=N[C@H](c3cc(OC)c(OC)c(OC)c3)[C@H](c3cc(OC)c(OC)c(OC)c3)N2)cc(OC)c1OC` here?
A: inactive

Q: Which IC50 (A549 [1]) does the source give for `Clc1ccccc1C1=N[C@H](c2ccccc2Cl)[C@H](c2ccccc2Cl)N1` here?
A: 10.7 µM

Q: And the solubility [9]?
A: Insoluble

Q: With `COc1ccc(C2=N[C@H](c3ccc(OC)cc3)[C@H](c3ccc(OC)cc3)N2)cc1` as the compound, how does the IC50 (A549 [1]) read?
A: 43.9 µM

Q: What about the Activity (A549 [10]) of the same compound?
A: inactive

Q: And the Activity (A549 [11])?
A: inactive

Q: What about the Activity (A549 [12]) of the same compound?
A: inactive

Q: What about the Activity (A549 [6]) of the same compound?
A: inactive

Q: What about the Activity (A549 [13]) of the same compound?
A: inactive

Q: What about the Activity (A549 [14]) of the same compound?
A: Active

Q: Which IC50 (A549 [1]) does the source give for `Brc1ccc(C2=N[C@H](c3ccc(Br)cc3)[C@H](c3ccc(Br)cc3)N2)cc1` here?
A: 9.05 µM

Q: What about the solubility [9] of the same compound?
A: Insoluble

Q: Which IC50 (A549 [1]) does the source give for `COc1ccc(OC)c(C2=N[C@H](c3cc(OC)ccc3OC)[C@H](c3cc(OC)ccc3OC)N2)c1` here?
A: 21.4 µM

Q: And the inhibition [15]?
A: inactive

Q: For `COc1ccc(C2=N[C@H](c3ccc(OC)c(OC)c3)[C@H](c3ccc(OC)c(OC)c3)N2)cc1OC`, which IC50 (A549 [1]) is on record?
A: 84.7 µM

Q: Which IC50 (A549 [1]) does the source give for `Fc1ccc(C2=N[C@H](c3ccc(F)cc3)[C@H](c3ccc(F)cc3)N2)cc1` here?
A: 108 µM

Q: For `COc1ccc(C2=N[C@H](c3ccc(OC)cc3OC)[C@H](c3ccc(OC)cc3OC)N2)c(OC)c1`, which IC50 (A549 [1]) is on record?
A: 9.32 µM

Q: And the Activity (A549 [10])?
A: inactive

Q: And the Activity (A549 [11])?
A: inactive

Q: And the Activity (A549 [12])?
A: inactive

Q: And the Activity (A549 [6])?
A: inactive

Q: And the Activity (A549 [13])?
A: inactive

Q: And the Activity (A549 [14])?
A: Active

Q: For `COc1cccc(C2=N[C@H](c3cccc(OC)c3OC)[C@H](c3cccc(OC)c3OC)N2)c1OC`, which IC50 (A549 [1]) is on record?
A: 16.2 µM

Q: And the inhibition [15]?
A: inactive

Q: With `CCOc1c(OC)cccc1C1=N[C@H](c2cccc(OC)c2OCC)[C@H](c2cccc(OC)c2OCC)N1` as the compound, how does the IC50 (A549 [1]) read?
A: 24.3 µM

Q: For `Clc1ccc(C2=N[C@H](c3ccc(Cl)c(Cl)c3)[C@H](c3ccc(Cl)c(Cl)c3)N2)cc1Cl`, which IC50 (A549 [1]) is on record?
A: 13.7 µM

Q: With `CCOc1ccc(C2=N[C@H](c3ccc(OCC)cc3)[C@H](c3ccc(OCC)cc3)N2)cc1` as the compound, how does the IC50 (A549 [1]) read?
A: 13.3 µM

Q: What about the Activity (A549 [3]) of the same compound?
A: Active

Q: And the Activity (A549 [4])?
A: Active

Q: What about the Activity (A549 [5]) of the same compound?
A: Active

Q: And the Activity (A549 [6])?
A: Active

Q: And the Activity (A549 [7])?
A: <=70%

Q: And the Activity (A549 [8])?
A: Active

Q: Which Activity (A549 [2]) does the source give for `Oc1ccc(O)c(C2=N[C@H](c3cc(O)ccc3O)[C@H](c3cc(O)ccc3O)N2)c1` here?
A: inactive
